The record followed here is patent US12390437B2, “Itaconic acid derivatives and uses thereof intreating an inflammatory disease or a disease associated with an undesirable immune response” (Sitryx Therapeutics Limited, priority 2019, dated 2025).

Series [1] concerns hepatocytes. Kind of series: Hepatocyte stability assay (mouse). As to conditions: 10 μM compound, 0.5×10^6 cells/mL, 60 minutes. Type of series: in vitro ADME. An excerpt:
(§1) Defrosted cryo-preserved hepatocytes (viability >70%) are used to determine the metabolic stability of a compound via calculation of intrinsic clearance (Clint; a measure of the removal of a compound from the liver in the absence of blood flow and cell binding). Clearance data are particularly important for in vitro work as they can be used in combination with in vivo data to predict the half-life and oral bioavailability of a drug.
(§2) The metabolic stability in hepatocytes assay involves a time-dependent reaction using both positive and negative controls. The cells must be pre-incubated at 37° C. then spiked with test compound (and positive control); samples taken at pre-determined time intervals are analysed to monitor the change in concentration of the initial drug compound over 60 minutes. A buffer incubation reaction (with no hepatocytes present) acts as a negative control and two cocktail solutions, containing compounds with known high and low clearance values (verapamil/7-hydroxycoumarin and propranolol/diltiazem), act as positive controls. • 1. The assay is run with a cell concentration of 0.5×10^6 cells/mL in Leibovitz buffer. • 2. All compounds and controls are run in duplicate. • 3. Compound concentration is 10 μM. • 4. All compounds and controls are incubated with both cells and buffer to show turnover is due to hepatic metabolism. • 5. All wells on the incubation plate will have 326.7 μL of either cells or buffer added. • 6. Prior to assay, cell and buffer-only incubation plates are preincubated for 10 mins at 37° C. • 7. The assay is initiated by adding compounds, 3.3 μL of 1 mM in 10% DMSO-90% Buffer; final DMSO concentration is 0.1%. • 8. Samples are taken at regular timepoints (0, 5, 10, 20, 40, 60 min) until 60 mins. • 9. Sample volume is 40 μL and it is added to 160 μL of crash solvent (acetonitrile with internal standard) and stored on ice. • 10. At the end of the assay, the crash plates are centrifuged at 3500 rpm for 20 mins at 4° C. • 11. 80 μL of clear supernatant is removed and mixed with 80 μL of deionised water before being analysed by LC-MS/MS.
(§3) Raw LC-MS/MS data are exported to, and analysed in, Microsoft Excel for determination of intrinsic clearance. The percentage remaining of a compound is monitored using the peak area of the initial concentration as 100%. Intrinsic clearance and half-life values are calculated using a graph of the natural log of percentage remaining versus the time of reaction in minutes. Half-life (min) and intrinsic clearance (Clint in μL min^−1 10^−6 cells) values are calculated using the gradient of the graph (the elimination rate constant, k) and Equations 1 and 2.

Series [2] has as its system hepatocytes. Kind of series: Hepatocyte stability assay (human). As to conditions: 10 μM compound, 0.5×10^6 cells/mL, 60 minutes. The series is classed as in vitro ADME.
Description: as §1, §2, §3

Series [3] has as its system IL-1β cytokine output from isolated primary human monocytes. Nature of the series: Primary human monocyte AlphaLISA IL-1β cytokine assay. As to conditions: CD14+ primary human monocytes, LPS 24 hr then Nigericin 1 hour. The series is classed as cell-based. The procedure: Measuring Inhibitory Effects on IL-1β and IL-6 Cytokine Output from Isolated Primary Human Monocytes
The cytokine inhibition profiles of compounds of formula (IW-1) were determined in a CD14^+ isolated primary human monocyte cell assay. All assays were performed in RPMI-1640 growth medium (Gibco), supplemented with heat-inactivated fetal bovine serum (FBS) and 1% penicillin-streptomycin unless specified otherwise. The IL-1β and IL-6 cytokine inhibition assays were each run in a background of isolated primary human monocyte cells as described below. All reagents described were from Sigma-Aldrich unless specified otherwise. Compounds were prepared as 100 mM DMSO stocks.
Primary peripheral blood mononuclear cells (PBMCs) were isolated from human whole blood. Following PBMC isolation, a CD14^+ monocyte isolation step was conducted whereby CD14^+ magnetic beads (Miltenyi Biotec) were incubated for 15 minutes with the PBMC suspension that was previously treated with ice cold T-cell isolation buffer (PBS, 0.5% BSA, 2 mM EDTA). Following bead incubation, the treated cell suspension was passed through a magnetic separation column designed to positively select for magnetically labelled cells. The isolated CD14^+ monocytes were subsequently plated at the appropriate cell density for the assay, prior to compound treatment on the day of plating. Working concentrations of compounds were prepared separately in RPMI-1640 only growth medium and pre-incubated with the cells for 30 minutes (37° C./5% CO2). Following the 30 minute compound pre-incubation, primary monocytes were treated with an appropriate concentration of LPS and subsequently incubated for a 24 hr period (37° C./5% CO2). An appropriate final concentration of Nigericin was then dispensed into the primary monocyte plates and incubated for 1 hour (37° C./5% CO2) before monocyte supernatants were harvested and collected in separate polypropylene 96-well holding plates prior to commencing the AlphaLISA cytokine assay.
Reagents from each of the IL-1β and IL-6 commercial kits (Perkin Elmer) were prepared and run according to the manufacturer's instructions. Subsequently, fluorescence signal was measured in a microplate reader (EnVision® Multilabel Reader, Perkin Elmer).
Percentage inhibition was calculated per cytokine by normalising the sample data to the high and low controls used within each plate (+/−LPS respectively). Percentage inhibition was then plotted against compound concentration and the 50% inhibitory concentration (IC50) was determined from the resultant concentration-response curve.
On the technique in general: In Alpha technology, singlet oxygen from a donor bead excites a nearby acceptor bead.

Some results are limits rather than exact numbers.

In the case of `C=C(CC(=O)OCCCCCCCC)C(=O)O` [4-octyl itaconate, 4-Octyl itaconate, reference compound], the results for the “CIint (μL min^−1 10^−6 cells)” value with hepatocytes [1] and with hepatocytes [2] were 351 μL min^−1 10^−6 cells and 401 μL min^−1 10^−6 cells, respectively. The “T½” value in the series on hepatocytes [1] and in the series on hepatocytes [2] was 4 min throughout. Also, the IC50 (in general, the concentration at which inhibition is half-maximal) in series [3] is more than 100 µM.
